# Experimental data from patent publication US4225619A, “Substituted fluoracylresorcinols” (Boehringer Ingelheim GmBH, priority 1976, dated 1980).
# Where two headings read alike, the source gives them in different places.
# How the values were obtained:
# Streptococcus Aronson [1] = assay: Agar diffusion test (hole-test); assay type: cell-based; conditions: 18-20 hours at 37° C., read-out: MIC, A.D.T., Streptococcus Aronson
# Experimental: (§1) The inhibitory effect on bacteria and fungi was examined by the serial dilution test and the agar diffusion test (hole-test). As bacteria were used: Staphylococcus aureus SG 511, Streptococcus Aronson, Streptococcus pyogenes At CC 86 68; as fungi: Candida albicans AT CC 10231, Trichophyton mentagrophytes AT CC 9129 and Aspergillus niger.
# (§2) 2. Glucose agar: for Sc. Aronson and St. pyogenes Recipe see meat extract agar. After sterilization 1 weight percent of glucose is added as a sterile 50% solution.
# (§3) The age of the primary cultures is 24 hours for bacteria and 14 days for fungi. The standardization of the suspension of microorganisms is effected using a photometer according to Eppendorf (test tube .phi.14 mm, filter 546 nm) and a suspension for comparison consisting of barium sulfate, this suspension being created by addition of 3.0 ml of 1% barium chloride solution to 97 ml of 1% sulfuric acid. After the standardization St. aureus SG 511 was diluted 1:1000 and Sc. pyogenes and Aronson 1:100 by means of sodium chloride solution. The fungi were used in an undiluted state.
# (§4) 40 mgm of the substance were put into a 10 ml measuring flask and filled up to the mark with the solvent (corresponds to a dilution of 1:250=4000 μg/ml).
# (§5) The dilutions to the concentrations under test were effected with distilled water or the respective solvent.
# (§6) 19 ml of the nutrient medium were filled into sterile Petri dishes of a diameter of 8 cm and dried. Subsequently the agar plates were charged with 4 ml of seed agar. 100 ml of seed agar contain 1.25 ml of the suspension of microorganisms, an agar plate thus containing 0.05 ml of the suspension of microorganisms. After solidification of the agar, 5 holes of a diameter of 5 mm were punched into the plates and filled with 0.05 ml of the correspondingly concentrated substance solution.
# (§7) Control tests merely using the solvent are to be carried out simultaneously.
# (§8) Bacteria were incubated at 37° C. for 18-20 hours and fungi at 27° C. for 7 days.
# (§9) The diameter of the area of inhibition in mm was measured after having deducted the diameter of the hole.
# [2] = test system: Streptococcus pyogenes At CC 86 68; assay: Agar diffusion test (hole-test); assay type: cell-based; conditions: ATCC8668, 18-20 hours at 37° C., read-out: MIC, A.D.T., Streptococcus pyogenes
# Experimental: as §1, §2, §3, §4, §5, §6, §7, §8, §9
# [3] = Acute toxicity in mice (LD50); conditions: mouse, in vivo, death within 14 days
# Experimental: The acute toxicity was determined with mice. The LD50, the dose leading to the death of 50% of the animals within 14 days, was calculated.
# HeLa-cell culture = assay: Inhibition of HeLa cell cultures; assay type: cell-based; conditions: Homo sapiens, 72 h, 37° C. for 3 days, 5% carbon dioxide; for IC50: read-out: ED50, HeLa cell culture; for minimal effective concentration: read-out: Minimal inhibitory concentration, HeLa cell culture
# Experimental: Measurement of the inhibition of cell cultures
# HeLa-cell culture was treated with trypsin and adjusted to a cell number of 150,000 cells/ml of fresh medium. The substance was always dissolved in the same quantity of dimethyl sulfoxide and then further diluted with growth medium. 0.1 ml of the substance-dilutions were added to each well of microtiter plates and then 0.2 ml of cell suspension were added (4 wells per dilution). Several growth controls containing 0.1 ml of growth medium instead of 0.1 ml of substance dilution were put up. After careful mixing, the cultures were incubated at 37° C. for 3 days in a 5% carbon dioxide atmosphere. The reading was effected in comparison with these controls. The results were given as the percentage of the deficiency and degeneration compared to the growth control. […] The statements are referred to μg of substance per ml of total medium.
# [4] = test system: Staphylococcus aureus SG 511; assay: Serial dilution test; assay type: cell-based; conditions: Staphylococcus aureus, SG511, 18-20 hours at 37° C., read-out: MIC, S.D.T., Staphylococcus aureus SG 511
# Experimental: as §1
# 1. Meat extract broth: for St. aureus SG 511
# (§10) The age of the primary cultures is 24 hours for bacteria and 14 days for fungi. The standardization of the suspension of microorganisms is effected using a photometer according to Eppendorf (test tube .phi.14 mm, filter 546 nm) and a suspension for comparison consisting of barium sulfate, this suspension being created by adition of 3.0 ml of 1% barium chloride solution to 97 ml of 1% sulfuric acid. After the standardization the bacteria were further diluted to a concentration of 1:1000 by means of sodium chloride solution, the fungi were used in an undiluted state.
# (§11) 40 mgm of the substance were put into a 10 ml measuring flask and filled up to the mark with the solvent (corresponds to a dilution of 1:250=4000 μg/ml). The further dilution series was standardized with distilled water or the respective solvent and the following substance concentrations were prepared: 1000; 250; 62.5 μg/ml.
# (§12) The tubes were filled with 4.9 ml of the corresponding liquid nutrient medium. Then 0.1 ml of the substance dilution prepared above was added to each tube, so that the mentioned final concentrations were present. Finally each tube was inoculated with 0.1 ml of the standardized suspension of microorganisms. Control tests merely using the solvent are to be carried out simultaneously.
# as §8
# (§13) The measurement is carried out macroscopically defining the minimal inhibitory concentration (the lowest still microbiostatically effective concentration).
# skin = assay: Compatibility on the skin under occlusion; assay type: in vivo; conditions: cream containing 10%; over 24 hours under occlusion
# Corynebacterium acnes = assay: Serial dilution test for Corynebacterium acnes; assay type: cell-based; conditions: Cutibacterium acnes, 37° C. for 48 hours, read-out: MIC, S.D.T., Corynebacterium acnes
# Experimental: (§14) Serial dilution test for Corynebacterium acnes and Pityrosporum ovale Nutrient medium
# (§15) For Corynebacterium acnes: thioglycolate-broth for Pityrosporum ovale: Littmann's broth, 5 ml per tube.
# (§16) Suspension of microorganisms in 0.9% sodium chloride solution, standardized using a photometer according to Eppendorf by means of a suspension for comparison consisting of barium sulfate, for Corynebacterium acnes in a dilution of 1:100, for Pityrosporum ovale in an undiluted state. 0.1 ml of the suspensions was used per test tube. Dimethyl sulfoxide served as a solvent for the substances.
# (§17) The suspension with Corynebacteria acnes was incubated at 37° C. for 48 hours, the suspension of Pityrosporum ovale at 27° C. for 7 days. The reading was effected by macroscopic evaluation of the growth of microorganisms and registration of the minimal inhibitory concentration.
# Streptococcus Aronson [5] = assay: Serial dilution test; assay type: cell-based; conditions: Streptococcus, 18-20 hours at 37° C., read-out: MIC, S.D.T., Streptococcus Aronson
# Experimental: as §1
# (§18) 2. Glucose broth: for Sc. Aronson and St. pyogenes Recipe see meat extract broth. After sterilization 1 weight percent of glucose is added as a sterile 50% solution.
# as §10, §11, §12, §8, §13
# [6] = test system: Streptococcus pyogenes At CC 86 68; assay: Serial dilution test; assay type: cell-based; conditions: Streptococcus pyogenes, ATCC8668, 18-20 hours at 37° C., read-out: MIC, S.D.T., Streptococcus pyogenes
# Experimental: as §1, §18, §10, §11, §12, §8, §13
# [7] = test system: Staphylococcus aureus SG 511; assay: Agar diffusion test (hole-test); assay type: cell-based; conditions: SG511, 18-20 hours at 37° C., read-out: MIC, A.D.T., Staphylococcus aureus SG 511
# Experimental: as §1
# 1. Meat extract agar: for St. aureus SG 511
# as §3, §4, §5, §6, §7, §8, §9
# [8] = test system: Pityrosporum ovale CBS 1878; assay: Agar diffusion test for Pityrosporum ovale CBS 1878; assay type: cell-based; conditions: Malassezia furfur, CBS1878, 168 h, 7 days at 27° C., read-out: MIC, A.D.T., Pityrosporum ovale
# Experimental: Agar diffusion test for Pityrosporum ovale CBS 1878 Nutrient medium
# Littmann's agar, 23 ml per Petri dish, diameter of dish 100 mm.
# Suspension of microorganisms in 0.9% sodium chloride solution, standardized using a photometer according to Eppendorf by means of a suspension for comparison consisting of barium sulfate. 0.05 ml per plate were used. The test substances were dissolved in dimethyl sulfoxide. The incubation time was 7 days at 27° C.; the area of inhibition in mm was measured, 0.05 ml of the solution of the substance were used for each punch-hole of a diameter of 6 mm. The results of these tests are recorded in the following tables 1 and 2: […]
# [9] = test system: Candida albicans AT CC 10231; assay: Serial dilution test; assay type: cell-based; conditions: for MIC: Candida albicans, ATCC10231, 168 h, 27° C. for 7 days, read-out: MIC, S.D.T., Candida albicans
# Experimental: as §1
# (§19) 3. Sabouraud broth: for C. alb., Trich. mnt., A. niger
# as §10, §11, §12, §8, §13
# [10] = test system: Trichophyton mentagrophytes AT CC 9129; assay: Serial dilution test; assay type: cell-based; conditions: ATCC9129, 168 h, 27° C. for 7 days, read-out: MIC, S.D.T., Trichophyton mentagrophytes
# Experimental: as §1, §19, §10, §11, §12, §8, §13
# Aspergillus niger [11] = assay: Serial dilution test; assay type: cell-based; conditions: Aspergillus niger, 168 h, 27° C. for 7 days, read-out: MIC, S.D.T., Aspergillus niger
# Experimental: as §1, §19, §10, §11, §12, §8, §13
# Pityrosporum ovale = assay: Serial dilution test for Pityrosporum ovale; assay type: cell-based; conditions: Malassezia furfur, 168 h, 27° C. for 7 days, read-out: MIC, S.D.T., Pityrosporum ovale
# Experimental: as §14, §15, §16, §17
# [12] = test system: Candida albicans AT CC 10231; assay: Agar diffusion test (hole-test); assay type: cell-based; conditions: ATCC10231, 168 h, 27° C. for 7 days, read-out: MIC, A.D.T., Candida albicans
# Experimental: as §1
# (§20) 3. Sabouraud agar: for C. alb., Trich. ment., A. niger
# as §3, §4, §5, §6, §7, §8, §9
# [13] = test system: Trichophyton mentagrophytes AT CC 9129; assay: Agar diffusion test (hole-test); assay type: cell-based; conditions: ATCC9129, 168 h, 27° C. for 7 days, read-out: MIC, A.D.T., Trichophyton mentagrophytes
# Experimental: as §1, §20, §3, §4, §5, §6, §7, §8, §9
# Aspergillus niger [14] = assay: Agar diffusion test (hole-test); assay type: cell-based; conditions: 168 h, 27° C. for 7 days, read-out: MIC, A.D.T., Aspergillus niger
# Experimental: as §1, §20, §3, §4, §5, §6, §7, §8, §9
# humans = conditions: in some cases; cited from earlier work
# [15] = ip, read-out: LD50 in the mouse, i.p.
# [16] = po, read-out: LD50 in the mouse, p.o.
# [17] = sc, read-out: LD50 in the mouse, s.c.
SMILES,MIC [8],MIC [9],MIC [10],MIC (Aspergillus niger [11]),MIC (Pityrosporum ovale),MIC [12],MIC [13],MIC (Aspergillus niger [14]),MIC (Streptococcus Aronson [1]),MIC [2],"LD50 at 336 h [3, 15]","LD50 at 336 h [3, 16]","LD50 at 336 h [3, 17]",IC50 (HeLa-cell culture),minimal effective concentration (HeLa-cell culture),MIC [4],MIC (Corynebacterium acnes),MIC (Streptococcus Aronson [5]),MIC [6],MIC [7],further results
"CCCCCCc1cc(C(=O)C(F)(F)F)c(O)cc1O [Compound E, 2,4-Dihydroxy-5-n-hexyl-trifluoroacetophenone]",,,,,,,,,≤ 15.6 µg/mL,≤ 15.6 µg/mL,82 mg/kg,> 3200 mg/kg,> 4000 mg/kg,5.81 µg/mL,0.78 µg/mL,1.25 µg/mL,0.08 µg/mL,0.31 µg/mL,0.31 µg/mL,≤ 15.6 µg/mL,compatibility on the skin (skin): tolerated without irritation
"CC(C)c1cc(C(=O)C(F)(F)F)c(O)c(Cc2c(O)c(C(=O)C(F)(F)F)cc(C(C)C)c2O)c1O [Compound Q, Methylene-bis-(2,6-dihydroxy-3-isopropyl-5-trifluoro-acetyl)-benzene]",,,,,,,,,≤ 15.6 µg/mL,≤ 15.6 µg/mL,400 mg/kg,> 4000 mg/kg,> 2 mg/kg,,,0.08 µg/mL,0.02 µg/mL,1.25 µg/mL,0.001 µg/mL,≤ 15.6 µg/mL,
"Cc1c(O)ccc(C(=O)C(F)(F)C(F)(F)F)c1O [V, 2,4-Dihydroxy-3-methyl-pentafluoropropiophenone]",4000 µg/mL,80 µg/mL,20 µg/mL,> 80 µg/mL,20 µg/mL,4000 µg/mL,250 µg/mL,> 4000 µg/mL,,,,,,1.5 µg/mL,≤ 0.78 µg/mL,,,,,,
CCCCCCc1ccc(O)cc1O [hexyl-resorcinol],,,,,,,,,,,,,,,,,,,,,allergies in humans (humans): in some cases cause allergies in humans

# More lines, main results first:
MIC [8],MIC [9],MIC [10],MIC (Aspergillus niger [11]),MIC (Pityrosporum ovale),MIC [12],MIC [13],MIC (Aspergillus niger [14]),SMILES,MIC (Streptococcus Aronson [1]),MIC [2],"LD50 at 336 h [3, 15]","LD50 at 336 h [3, 16]","LD50 at 336 h [3, 17]",IC50 (HeLa-cell culture),minimal effective concentration (HeLa-cell culture),MIC [4],MIC (Corynebacterium acnes),MIC (Streptococcus Aronson [5]),MIC [6],MIC [7],further results
1000 µg/mL,20 µg/mL,5 µg/mL,20 µg/mL,10 µg/mL,1000 µg/mL,250 µg/mL,250 µg/mL,"O=C(c1cc(Cl)c(O)cc1O)C(F)(F)F [U, 2,4-Dihydroxy-5-chloro-trifluoroacetophenone]",,,,,,,,,,,,,
250 µg/mL,,1.25 µg/mL,5 µg/mL,80 µg/mL,1000 µg/mL,≤ 15.6 µg/mL,250 µg/mL,"CCCCCCCCCCc1cc(C(=O)C(F)(F)F)c(O)cc1O [W, 2,4-Dihydroxy-5-n-decyl-trifluoroacetophenone]",,,,,,,,,,,,,"Concentration with reduced growth (value in brackets), S.D.T., Candida albicans ([9]; reduced growth at this concentration): 20 µg/mL"
